In ChEMBL document CHEMBL1146957, “An efficient, asymmetric solid-phase synthesis of benzothiadiazine-substituted tetramic acids: potent inhibitors of the hepatitis C virus RNA-dependent RNA polymerase” (Bioorg Med Chem Lett, 2006):

What was measured:
[1] = molecular target: RNA-directed RNA polymerase (Hepacivirus hominis, UniProt O39930); assay: Inhibition of HCV NS5B RNA dependent RNA polymerase
Hepatitis C virus = assay: Inhibition of HCV replication; assay type: functional, organism-based, Hepacivirus hominis

RNA-directed RNA polymerase, sequence (O39930 whole entry): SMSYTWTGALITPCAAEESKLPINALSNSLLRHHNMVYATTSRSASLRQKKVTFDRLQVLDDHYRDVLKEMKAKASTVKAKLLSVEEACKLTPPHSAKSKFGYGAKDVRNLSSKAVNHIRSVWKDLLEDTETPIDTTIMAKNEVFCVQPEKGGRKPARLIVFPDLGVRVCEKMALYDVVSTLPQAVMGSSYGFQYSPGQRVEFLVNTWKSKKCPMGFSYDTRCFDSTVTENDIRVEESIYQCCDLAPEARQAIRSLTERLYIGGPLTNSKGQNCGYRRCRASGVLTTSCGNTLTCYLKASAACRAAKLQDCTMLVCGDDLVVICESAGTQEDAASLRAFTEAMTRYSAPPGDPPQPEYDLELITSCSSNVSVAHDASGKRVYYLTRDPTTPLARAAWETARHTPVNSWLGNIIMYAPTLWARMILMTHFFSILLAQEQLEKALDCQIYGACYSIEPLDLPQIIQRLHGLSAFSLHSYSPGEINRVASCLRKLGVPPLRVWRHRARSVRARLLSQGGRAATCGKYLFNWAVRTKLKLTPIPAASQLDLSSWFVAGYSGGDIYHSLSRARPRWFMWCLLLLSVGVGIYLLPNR

Row | SMILES | IC50 [1] | IC50 (Hepatitis C virus)
1 | CC(C)CCn1c(=O)c(C2=NS(=O)(=O)c3ccccc3N2)c(O)c2ccccc21 | 200 nM | 269000 nM
2 | CC(C)(C)CCN1C(=O)C(C2=NS(=O)(=O)c3ccccc3N2)=C(O)[C@@H]1C1CCCCC1 | 486 nM | 
3 | CC(C)(C)CCN1C(=O)C(C2=NS(=O)(=O)c3ccccc3N2)=C(O)[C@@H]1C(C)(C)C | 1.7 nM | 
4 | CCC(C)[C@H]1C(O)=C(C2=NS(=O)(=O)c3ccccc3N2)C(=O)N1Cc1ccccc1 (some centres undefined) | 88 nM | 37000 nM
5 | CC(C)CCN1C(=O)C(C2=NS(=O)(=O)c3ccccc3N2)=C(O)[C@@H]1C(C)C | 147 nM | 159000 nM
6 | CC(C)CCN1C(=O)C(C2=NS(=O)(=O)c3ccccc3N2)=C(O)[C@@H]1Cc1ccccc1 | 3570 nM | > 60000 nM
7 | CC(C)(C)CCN1C(=O)C(C2=NS(=O)(=O)c3ccccc3N2)=C(O)[C@@H]1c1ccc(F)cc1 | > 748 nM | 
8 | CC(C)(C)[C@H]1C(O)=C(C2=NS(=O)(=O)c3ccccc3N2)C(=O)N1Cc1ccccn1 | > 100000 nM | 

The remaining lines, values ahead:

Row | IC50 [1] | IC50 (Hepatitis C virus) | SMILES
9 | 22 nM | 13000 nM | CC(C)(C)[C@H]1C(O)=C(C2=NS(=O)(=O)c3ccccc3N2)C(=O)N1Cc1ccccc1
10 | 2470 nM |  | O=C1C(C2=NS(=O)(=O)c3ccccc3N2)=C(O)[C@H](Cc2cccnc2)N1Cc1ccc(F)cc1
11 | 18 nM | 8000 nM | CC(C)CCN1C(=O)C(C2=NS(=O)(=O)c3ccccc3N2)=C(O)[C@@H]1C(C)(C)C
12 | 59 nM |  | CC(C)(C)[C@H]1C(O)=C(C2=NS(=O)(=O)c3ccccc3N2)C(=O)N1Cc1ccc(F)cc1
13 | 530 nM |  | CC(C)(C)[C@H]1C(O)=C(C2=NS(=O)(=O)c3ccccc3N2)C(=O)N1CCC1CC1
